ChEMBL document CHEMBL1154822, “Synthesis and antiproliferative activity of 7-azaindirubin-3'-oxime, a 7-aza isostere of the natural indirubin pharmacophore” (J Nat Prod, 2009)

What was measured:
Format in all cases: functional
786-0 = assay: Cytotoxicity against human 786-0 cells assessed as cell growth at 0.1 uM after 1 to 11 days by MTT assay; details: read-out: Activity
SK-MEL-5 = assay: Cytotoxicity against human SK-MEL-5 cells after 1 to 11 days by MTT assay
NCI-H522 [1] = assay: Cytotoxicity against human NCI-H522 cells assessed as cell growth at 1 uM after 1 to 11 days by MTT assay; details: read-out: Activity
RXF 393 [2] = assay: Cytotoxicity against human […] cells after 1 to 11 days by MTT assay
UACC-62 [3] = assay: Cytotoxicity against human UACC62 cells assessed as cell growth at 1 mM after 1 to 11 days by MTT assay; details: read-out: Activity
A498 = assay: Cytotoxicity against human A498 cells assessed as cell growth at 0.1 uM after 1 to 11 days by MTT assay; details: read-out: Activity
COLO 205 [4] = assay: Cytotoxicity against human COLO205 cells assessed as cell growth at 1 mM after 1 to 11 days by MTT assay; details: read-out: Activity
UACC-257 [5] = assay: Cytotoxicity against human UACC257 cells assessed as cell growth at 1 mM after 1 to 11 days by MTT assay; details: read-out: Activity
SR [6] = assay: Cytotoxicity against human SR cells assessed as cell growth at 1 mM after 1 to 11 days by MTT assay; details: read-out: Activity
UACC-62 [7] = assay: Cytotoxicity against human UACC62 cells assessed as cell growth at 10 uM after 1 to 11 days by MTT assay; details: read-out: Activity
OVCAR-4 = assay: Cytotoxicity against human OVCAR4 cells assessed as cell growth at 1 mM after 1 to 11 days by MTT assay; details: read-out: Activity
PC-3 [8] = assay: Cytotoxicity against human PC3 cells assessed as cell growth at 0.1 uM after 1 to 11 days by MTT assay; details: read-out: Activity
PC-3 [9] = assay: Cytotoxicity against human PC3 cells assessed as cell growth at 1 uM after 1 to 11 days by MTT assay; details: read-out: Activity
UACC-257 [10] = assay: Cytotoxicity against human UACC257 cells assessed as cell growth at 100 uM after 1 to 11 days by MTT assay; details: read-out: Activity
SF-539 = assay: Cytotoxicity against human SF539 cells assessed as cell growth at 1 mM after 1 to 11 days by MTT assay; details: read-out: Activity
U-251 = assay: Cytotoxicity against human U251 cells assessed as cell growth at 0.1 uM after 1 to 11 days by MTT assay; details: read-out: Activity
SK-OV-3 = assay: Cytotoxicity against human SKOV3 cells assessed as cell growth at 1 uM after 1 to 11 days by MTT assay; details: read-out: Activity
M14 [11] = assay: Cytotoxicity against human M14 cells assessed as cell growth at 0.1 uM after 1 to 11 days by MTT assay; details: read-out: Activity
COLO 205 [12] = assay: Cytotoxicity against human COLO205 cells assessed as cell growth at 0.1 uM after 1 to 11 days by MTT assay; details: read-out: Activity
M14 [13] = assay: Cytotoxicity against human M14 cells assessed as cell growth at 1 uM after 1 to 11 days by MTT assay; details: read-out: Activity
Malme-3M [14] = assay: Cytotoxicity against human MALME-3M cells assessed as cell growth at 10 uM after 1 to 11 days by MTT assay; details: read-out: Activity
SW-620 = assay: Cytotoxicity against human SW620 cells assessed as cell growth at 100 uM after 1 to 11 days by MTT assay; details: read-out: Activity
HOP-62 = assay: Cytotoxicity against human HOP62 cells assessed as cell growth at 100 uM after 1 to 11 days by MTT assay; details: read-out: Activity
NCI-H23 = assay: Cytotoxicity against human NCI-H23 cells assessed as cell growth at 10 uM after 1 to 11 days by MTT assay; details: read-out: Activity
NCI-H226 = assay: Cytotoxicity against human NCI-H226 cells assessed as cell growth at 0.1 uM after 1 to 11 days by MTT assay; details: read-out: Activity
MCF7 = assay: Cytotoxicity against human MCF7 cells assessed as cell growth at 1 uM after 1 to 11 days by MTT assay; details: read-out: Activity
UACC-257 [15] = assay: Cytotoxicity against human UACC257 cells assessed as cell growth at 0.1 uM after 1 to 11 days by MTT assay; details: read-out: Activity
NCI-H460 = assay: Cytotoxicity against human NCI-H460 cells assessed as cell growth at 100 uM after 1 to 11 days by MTT assay; details: read-out: Activity
MDA-MB-231 = assay: Cytotoxicity against human MDA-MB-231 cells assessed as cell growth at 10 uM after 1 to 11 days by MTT assay; details: read-out: Activity
MDA-MB-468 = assay: Cytotoxicity against human MDA-MB-468 cells assessed as cell growth at 10 uM after 1 to 11 days by MTT assay; details: read-out: Activity
HCT-116 = assay: Cytotoxicity against human HCT116 cells assessed as cell growth at 1 mM after 1 to 11 days by MTT assay; details: read-out: Activity
SNB-75 = assay: Cytotoxicity against human SNB75 cells assessed as cell growth at 1 uM after 1 to 11 days by MTT assay; details: read-out: Activity
ACHN = assay: Cytotoxicity against human ACHN cells after 1 to 11 days by MTT assay
HOP-92 = assay: Cytotoxicity against human HOP92 cells assessed as cell growth at 100 uM after 1 to 11 days by MTT assay; details: read-out: Activity
NCI-H522 [16] = assay: Cytotoxicity against human NCI-H522 cells assessed as cell growth at 0.1 uM after 1 to 11 days by MTT assay; details: read-out: Activity
UACC-62 [17] = assay: Cytotoxicity against human UACC62 cells assessed as cell growth at 100 uM after 1 to 11 days by MTT assay; details: read-out: Activity
HCC 2998 = assay: Cytotoxicity against human HCC2998 cells assessed as cell growth at 1 uM after 1 to 11 days by MTT assay; details: read-out: Activity
K562 = assay: Cytotoxicity against human K562 cells assessed as cell growth at 1 mM after 1 to 11 days by MTT assay; details: read-out: Activity
NCI-H522 [18] = assay: Cytotoxicity against human NCI-H522 cells assessed as cell growth at 100 uM after 1 to 11 days by MTT assay; details: read-out: Activity
SF-268 = assay: Cytotoxicity against human SF268 cells after 1 to 11 days by MTT assay
Malme-3M [19] = assay: Cytotoxicity against human MALME-3M cells after 1 to 11 days by MTT assay
SK-MEL-28 = assay: Cytotoxicity against human SK-MEL-28 cells assessed as cell growth at 10 uM after 1 to 11 days by MTT assay; details: read-out: Activity
RXF 393 [20] = assay: Cytotoxicity against human […] cells assessed as cell growth at 100 uM after 1 to 11 days by MTT assay; details: read-out: Activity
SR [21] = assay: Cytotoxicity against human SR cells assessed as cell growth at 1 uM after 1 to 11 days by MTT assay; details: read-out: Activity
[22] = read-out: LC50 (the source's name)

For `O=C1Nc2ncccc2/C1=C1/Nc2ccccc2/C1=N\O`, the growth at 0.1 µM (786-0) was 119%, the GI50 (SK-MEL-5) was 9.53 µM and the TGI (SK-MEL-5) was > 100 µM. For the same molecule, the CC50 (SK-MEL-5; [22]) was > 100 µM, the growth at 1 µM (NCI-H522 [1]) was 99% and the GI50 (RXF 393 [2]) was 1.22 µM. The TGI (RXF 393 [2]) was > 100 µM, the CC50 (RXF 393 [2]; [22]) was > 100 µM and the growth at 1000 µM (UACC-62 [3]) was 25%. It also gave a growth at 0.1 µM (A498) of 76%, a growth at 1000 µM (COLO 205 [4]) of 23% and a growth at 1000 µM (UACC-257 [5]) of 60%. It also gave a growth at 1000 µM (SR [6]) of 26%, a growth at 10 µM (UACC-62 [7]) of 77% and a growth at 1000 µM (OVCAR-4) of 39%. The growth at 0.1 µM (PC-3 [8]) was 96%, the growth at 1 µM (PC-3 [9]) was 83% and the growth at 100 µM (UACC-257 [10]) was 79%. For the same molecule, the growth at 1000 µM (SF-539) was 52%, the growth at 0.1 µM (U-251) was 97% and the growth at 1 µM (SK-OV-3) was 93%. It also gave a growth at 0.1 µM (M14 [11]) of 95%, a growth at 0.1 µM (COLO 205 [12]) of 96% and a growth at 1 µM (M14 [13]) of 95%. It also gave a growth at 10 µM (Malme-3M [14]) of 91%, a growth at 100 µM (SW-620) of 43% and a growth at 100 µM (HOP-62) of 63%. It also gave a growth at 10 µM (NCI-H23) of 83%, a growth at 0.1 µM (NCI-H226) of 86% and a growth at 1 µM (MCF7) of 91%. The growth at 0.1 µM (UACC-257 [15]) was 98%, the growth at 100 µM (NCI-H460) was 41% and the growth at 10 µM (MDA-MB-231) was 76%. It also gave a growth at 10 µM (MDA-MB-468) of 80%, a growth at 1000 µM (HCT-116) of 50% and a growth at 1 µM (SNB-75) of 90%. The GI50 (ACHN) was 2.68 µM, the TGI (ACHN) was > 100 µM and the CC50 (ACHN; [22]) was > 100 µM. It also gave a growth at 100 µM (HOP-92) of 36%, a growth at 0.1 µM (NCI-H522 [16]) of 100% and a growth at 100 µM (UACC-62 [17]) of 27%. It also gave a growth at 1 µM (HCC 2998) of 87%, a growth at 1000 µM (K562) of 25% and a growth at 100 µM (NCI-H522 [18]) of 61%. For the same molecule, the GI50 (SF-268) was > 100 µM, the TGI (SF-268) was > 100 µM and the CC50 (SF-268; [22]) was > 100 µM. The GI50 (Malme-3M [19]) was 3.36 µM, the TGI (Malme-3M [19]) was 172 µM and the CC50 (Malme-3M [19]; [22]) was > 100 µM. The growth at 10 µM (SK-MEL-28) was 87%, the growth at 100 µM (RXF 393 [20]) was -9% and the growth at 1 µM (SR [21]) was 89%.
